Test [1] deals with hNaV1.4. Nature of the test: Whole-cell patch-clamp, block of NaV1.4 current. The class given is cell-based, human. As to conditions: HEK 293 cells. The source says: (§1) We, therefore, aimed at testing the pharmacological activity of sCm39 on a battery of various potassium and sodium ion channels. Among the tested channels were six members of human voltage-gated K^+ (hKV) channels from Shaker family, hKV1.1-hKV1.6 (Figure 3A–F) and three members of Ca^2+-activated potassium channel; hKCa2.2 (SK2, Figure 3I), the small-conductance Ca^2+-activated channel; hKCa3.1 (IKCa1, SK4. Figure 3J), the intermediate-conductance Ca^2+-activated channel expressed in T lymphocytes; and mKCa1.1 (BK, Slo1, MaxiK, Figure 3H), the large-conductance voltage- and Ca^2+-activated channel of mice. In addition, we also screened the effect of Cm39 on hKV11.1 (hERG1, Figure 3G), a voltage-gated cardiac K^+ channel, and two human voltage-gated sodium (hNaV) channels, hNaV1.4 (Figure 3K) and hNaV1.5 (Figure 3L), expressed in skeletal and cardiac muscles, respectively. These ion channels were heterologously expressed in the CHO or HEK cell lines except for KV1.3. Human peripheral T lymphocytes. […]
Whole-cell currents were recorded in voltage-clamped cells following standard protocols by using a Multiclamp 700B amplifier connected to a computer with Axon Digidata1440 digitizer and for data acquisition, Clampex 10.7 software was used (Molecular Devices). […]
For orientation: Patch clamp records ionic current or voltage across a cell membrane.

Test [2] concerns hKV1.4. Nature of the test: Whole-cell patch-clamp, block of KV1.4 current. The class given is cell-based, human. The settings on record: CHO cells.
Description: as §1, with “lymphocytes. They were stimulated with Phytohemagglutinin A (PHA) to increase the KV1.3 channel expression, and Ca^2+-free intracellular solution was used to avoid KCa3.1 channel activation.” for “lymphocytes.”
Those plasmids which lack a fluorescent tag were co-transfected with a plasmid encoding GFP. […] Generally, currents were recorded 24 to 48 h post transfection. […]

Entries after “also recorded” stand apart in the source; their conditions may differ. A value given as a limit tells only on which side of the number the result lay.

For the molecule `CC[C@H](C)[C@@H]1NC(=O)[C@H](C)NC(=O)[C@H](C)NC(=O)[C@H](CCCCN)NC(=O)[C@@H]2CSSC[C@@H](C(=O)N[C@@H](Cc3ccc(O)cc3)C(=O)N[C@@H](Cc3ccc(O)cc3)C(=O)O)NC(=O)[C@H](CCCCN)NC(=O)[C@@H]3CSSC[C@H](NC(=O)[C@H](CCC(=O)O)NC(=O)[C@H](CO)NC(=O)[C@H](CO)NC(=O)[C@H](CO)NC(=O)[C@H](CCCCN)NC(=O)[C@@H](NC(=O)[C@H](CCCCN)NC(=O)[C@H](Cc4c[nH]cn4)NC(=O)[C@H](CC(N)=O)NC(=O)[C@@H](NC(=O)[C@H](Cc4ccccc4)NC(=O)[C@@H](N)[C@@H](C)O)[C@@H](C)CC)CSSC[C@H](NC(=O)[C@H](CCCCN)NC(=O)CNC(=O)[C@H](CO)NC(=O)[C@H](C)NC(=O)[C@H](CCCNC(=N)N)NC(=O)CNC1=O)C(=O)N[C@@H]([C@@H](C)CC)C(=O)N[C@@H](CC(N)=O)C(=O)N[C@@H](CO)C(=O)N[C@@H]([C@@H](C)O)C(=O)N3)C(=O)N[C@@H](CC(C)C)C(=O)N1CCC[C@H]1C(=O)N[C@@H](C)C(=O)N2` [Cm39], the “inhibition (in words)” value in test [1] (1 μM) and in test [2] (1 μM) was “does not inhibit; also recorded: did not show any effect” throughout. Further, the decrease in current in test [1] (1 µM, 3−5 min, n = 3−5) was below 3%; in test [2] (1 µM, 3−5 min, n = 3−5), below 3%.

These data come from PMC9866218, “Characterization and Chemical Synthesis of Cm39 (α-KTx 4.8): A Scorpion Toxin That Inhibits Voltage-Gated K^+ Channel KV1.2 and Small- and Intermediate-Conductance Ca^2+-Activated K^+ Channels KCa2.2 and KCa3.1” (Toxins, 2023).
